In patent US5034311A, “Photographic elements containing release compounds I” (Eastman Kodak Company, priority 1990, dated 1991):

Assay: Rate of tetrazole inhibitor release from timing group compounds in micellar solution (HPLC of free inhibitor and residual timing group compound)
Type: physicochemical
Conditions: inhibitor release, pH 13.5, (+10%)
Description: Rates of tetrazole release were measured for several timing group compounds which are representative of fragments that are generated by reaction of a coupler of this invention with oxidized developer during photographic processing. These solution measurements are a useful indication of photographic performance. Lower values of inhibitor release half-lives in solution correlate with greater development inhibition effects in film.
For a given measurement, 12.5 μmol of the timing group compound was dissolved in 3.2 mL of reduced Triton X-100 surfactant plus one drop glacial acetic acid plus approximately 5 mL methylene chloride (to facilitate dissolution of the timing group compound in surfactant). After methylene chloride was evaporated under partial vacuum, water (approximately 15 mL) was added and the mixture was vigorously agitated with a vortex mixer to create micelles. This miscellar solution was then diluted to 25 mL with water and mixed again. Inhibitor release kinetics were initiated by mixing 2 mL of the above micellar solution with an equal volume of an aqueous potassium hydroxide solution (0.75 mol KOH/L), producing a reaction mixture with a pH of about 13.5. At intervals, portions of the reaction mixture were quenched by the addition of 1 mL 30% aqueous acetic acid. The quenched mixture was then analyzed by high performance liquid chromatography to determine the concentrations of free inhibitor and residual timing group compound. First-order reaction rate constants were calculated from these concentration versus time data, and the reaction half-life, t1/2, was calculated with the expression t1/2 =0.693/k, where k is the observed rate constant. […] In the following table -INH signifies the inhibitor of the structure

**Q.** With `CCCCCCCOc1ccc(-c2nnn(C3CCCc4cc(O)ccc43)n2)cc1` (stereo not drawn) as the compound, how does the “Half-Life at pH 13.5” value read?
**A.** 15 sec

**Q.** Which “Half-Life at pH 13.5” value does the source give for `CCCCCCCOc1ccc(-c2nnn(C3c4ccc(O)cc4CCC3(C)C)n2)cc1` (stereo not drawn) here?
**A.** 100 sec

**Q.** Which “Half-Life at pH 13.5” value does the source give for `CCCCCCCOc1ccc(-c2nnn(C3CCCCc4cc(O)ccc43)n2)cc1` (stereo not drawn) here?
**A.** 250 sec

**Q.** With `CCCCCCCOc1ccc(-c2nnn(C3CCOc4cc(O)ccc43)n2)cc1` (stereo not drawn) as the compound, how does the “Half-Life at pH 13.5” value read?
**A.** 9 sec

**Q.** With `CCCCCCCOc1ccc(-c2nnn(C3CCc4cc(O)ccc43)n2)cc1` (stereo not drawn) as the compound, how does the “Half-Life at pH 13.5” value read?
**A.** 30 sec

**Q.** With `CCCCCCCOc1ccc(-c2nnn(Cc3ccc(O)cc3)n2)cc1` [reference compound] as the compound, how does the “Half-Life at pH 13.5” value read?
**A.** 29,000 sec
